Assay results published in patent US8642592B2, “Oxo-heterocyclically substituted alkyl carboxylic acids and use thereof” (Bayer Intellectual Property GmbH, priority 2009, dated 2014).

Legend:
saphenous artery = test: Vasorelaxant effect in vitro (phenylephrine-contracted artery rings); set-up: species or system Rabbits; details: Oryctolagus cuniculus; concentration reducing phenylephrine-induced contraction of rabbit saphenous artery rings by 50%
Procedure: Rabbits are anesthetized and sacrificed by intravenous injection of thiopental sodium (about 50 mg/kg) and exsanguinated. The saphenous artery is removed and divided into rings 3 mm wide. The rings are mounted singly on in each case a pair of triangular hooks open at the end and made of 0.3 mm-thick special wire (Remanium®). Each ring is placed under an initial tension in 5 ml organ baths with Krebs-Henseleit solution which is at 37° C., is gassed with carbogen and has the following composition: NaCl 119 mM; KCl 4.8 mM; CaCl2×2 H2O 1 mM; MgSO4×7 H2O 1.4 mM; KH2PO4 1.2 mM; NaHCO3 25 mM; glucose 10 mM; bovine serum albumin 0.001%. The force of contraction is detected with Statham UC2 cells, amplified and digitized via A/D converters (DAS-1802 HC, Keithley Instruments, Munich) and recorded in parallel on chart recorders. Contractions are induced by addition of phenylephrine.
After several (generally 4) control cycles, the substance to be investigated is added in each further run in increasing dosage, and the level of the contraction achieved under the influence of the test substance is compared with the level of the contraction reached in the last preceding run. The concentration necessary to reduce the contraction reached in the preceding control by 50% is calculated from this (IC50). The standard application volume is 5 μl. The proportion of DMSO in the bath solution corresponds to 0.1%.

sGC = molecular target: T1, sGC (Rattus norvegicus, UniProt P20595); test: sGC-activating activity in the CHO reporter cell in vitro; format: cell-based
T1 construct: expressed in transfected cells; host or cells: CHO reporter cell line
T1 sequence (P20595 1-619): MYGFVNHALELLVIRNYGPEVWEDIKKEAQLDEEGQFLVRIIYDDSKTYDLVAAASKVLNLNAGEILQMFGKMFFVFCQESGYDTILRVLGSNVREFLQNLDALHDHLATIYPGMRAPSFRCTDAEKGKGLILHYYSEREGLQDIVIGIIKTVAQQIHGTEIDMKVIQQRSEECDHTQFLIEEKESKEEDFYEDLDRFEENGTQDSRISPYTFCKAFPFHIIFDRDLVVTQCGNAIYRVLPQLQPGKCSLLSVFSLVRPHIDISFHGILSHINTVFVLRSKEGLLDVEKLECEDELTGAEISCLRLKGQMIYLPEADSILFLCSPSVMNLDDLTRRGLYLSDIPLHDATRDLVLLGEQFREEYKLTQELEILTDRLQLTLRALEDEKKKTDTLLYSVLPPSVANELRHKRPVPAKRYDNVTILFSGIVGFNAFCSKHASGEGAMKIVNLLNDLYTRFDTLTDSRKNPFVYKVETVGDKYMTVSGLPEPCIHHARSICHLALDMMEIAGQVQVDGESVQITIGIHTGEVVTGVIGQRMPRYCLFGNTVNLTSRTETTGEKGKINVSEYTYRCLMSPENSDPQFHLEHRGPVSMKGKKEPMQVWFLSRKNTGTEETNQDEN
T1 sequence (P19686 1-690 partner): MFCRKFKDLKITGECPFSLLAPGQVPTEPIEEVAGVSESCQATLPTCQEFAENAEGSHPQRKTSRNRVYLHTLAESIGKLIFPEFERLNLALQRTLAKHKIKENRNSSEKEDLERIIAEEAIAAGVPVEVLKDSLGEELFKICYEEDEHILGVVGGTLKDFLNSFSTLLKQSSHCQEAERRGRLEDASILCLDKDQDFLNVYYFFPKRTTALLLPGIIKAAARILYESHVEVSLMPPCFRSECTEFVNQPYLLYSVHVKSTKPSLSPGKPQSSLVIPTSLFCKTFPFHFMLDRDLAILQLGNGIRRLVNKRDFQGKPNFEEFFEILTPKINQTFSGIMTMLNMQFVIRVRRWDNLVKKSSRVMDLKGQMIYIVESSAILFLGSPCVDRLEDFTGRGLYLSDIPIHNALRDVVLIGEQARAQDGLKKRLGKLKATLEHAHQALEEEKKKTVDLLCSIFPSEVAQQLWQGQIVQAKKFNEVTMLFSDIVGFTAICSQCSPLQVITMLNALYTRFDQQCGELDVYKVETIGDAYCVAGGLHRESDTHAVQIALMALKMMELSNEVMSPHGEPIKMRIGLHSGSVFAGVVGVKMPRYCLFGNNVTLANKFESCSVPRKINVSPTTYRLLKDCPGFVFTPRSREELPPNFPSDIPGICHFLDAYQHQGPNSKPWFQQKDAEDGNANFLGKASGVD
Procedure: The cellular action of the compounds according to the invention is determined at a recombinant guanylate cyclase reporter cell line, as described in F. Wunder et al., Anal. Biochem. 339, 104-112 (2005).

Heme-containing sGC = molecular target: T2, Heme-containing sGC (Rattus norvegicus, UniProt P20595); test: Stimulation of recombinant soluble guanylate cyclase in vitro, heme-containing enzyme; format: biochemical
T2 construct: made in house; host or cells: baculovirus/Sf9 insect cells
T2 sequence (P20595 1-619): T1 sequence (P20595 1-619)
T2 sequence (P19686 1-690 partner): T1 sequence (P19686 1-690 partner)
From the text: Hoenicka, E. M. Becker, H. Apeler, T. Sirichoke, H. Schroeder, R. Gerzer and J.-P. Stasch, “Purified soluble guanylyl cyclase expressed in a baculovirus/Sf9 system: Stimulation by YC-1, nitric oxide, and carbon oxide”, J. Mol. Med. 77 (1999), 14-23. The heme-free guanylate cyclase is obtained by adding Tween 20 to the sample buffer (0.5% in the final concentration).
The activation of sGC by a test substance is reported as n-fold stimulation of the basal activity.

IC50 (saphenous artery): 284 nM
MEC (minimum effective concentration), sGC-activating activity in the CHO reporter cell (sGC): 10 nM
Stimulation (n-fold) of heme-containing sGC, Basal (Heme-containing sGC; 0.1 μM Example 1): 1.5 n-fold
Stimulation (n-fold) of heme-containing sGC, +0.1 μM DEA/NO (Heme-containing sGC; 0.1 μM Example 1 + 0.1 μM DEA/NO): 21.9 n-fold
Stimulation (n-fold) of heme-containing sGC, +10 μM ODQ (Heme-containing sGC; 0.1 μM Example 1 + 10 μM ODQ): 3.0 n-fold
Stimulation (n-fold) of heme-containing sGC, Basal (Heme-containing sGC; 1 μM Example 1): 1.4 n-fold
Stimulation (n-fold) of heme-containing sGC, +0.1 μM DEA/NO (Heme-containing sGC; 1 μM Example 1 + 0.1 μM DEA/NO): 19.3 n-fold
Stimulation (n-fold) of heme-containing sGC, +10 μM ODQ (Heme-containing sGC; 1 μM Example 1 + 10 μM ODQ): 3.7 n-fold
Stimulation (n-fold) of heme-containing sGC, Basal (Heme-containing sGC; 10 μM Example 1): 2.6 n-fold
Stimulation (n-fold) of heme-containing sGC, +0.1 μM DEA/NO (Heme-containing sGC; 10 μM Example 1 + 0.1 μM DEA/NO): 20.0 n-fold
Stimulation (n-fold) of heme-containing sGC, +10 μM ODQ (Heme-containing sGC; 10 μM Example 1 + 10 μM ODQ): 10.3 n-fold
Stimulation (n-fold) of heme-containing sGC, Basal (Heme-containing sGC; 100 μM Example 1): 14.0 n-fold
Stimulation (n-fold) of heme-containing sGC, +0.1 μM DEA/NO (Heme-containing sGC; 100 μM Example 1 + 0.1 μM DEA/NO): 37.8 n-fold
Stimulation (n-fold) of heme-containing sGC, +10 μM ODQ (Heme-containing sGC; 100 μM Example 1 + 10 μM ODQ): 46.6 n-fold
Effect of combination with the NO donor DEA/NO on sGC stimulation (Heme-containing sGC; combination with DEA/NO, heme-containing sGC): no synergistic effect
Effect of the heme-dependent sGC inhibitor ODQ on sGC activation (Heme-containing sGC; with ODQ, heme-containing sGC, effect is in fact increased): not blocked
SMILES: O=C(NCCCCC1(C(=O)O)CC1)C(c1ccc(CN2N=C(c3ccccc3)OCC2=O)cc1)C1CCCC1 (single isomer, unassigned; (+)) [Example 1, (+)-1-(4-{[2-cyclopentyl-2-{4-[(5-oxo-2-phenyl-5,6-dihydro-4H-1,3,4-oxadiazin-4-yl)methyl]phenyl}-acetyl]amino}butyl)cyclopropanecarboxylic acid]
